One data set has as its system trigeminal ganglia. In words: FM fluorophore uptake, intraoperative fluorescence imaging. The settings on record: 5 mg/kg mice, 0.5 mg/kg rats IP, 16 hours before imaging; signal normalized to muscle, vs vehicle control. The class given is in vivo, mice and rats. How it is done: (§1) Imaging was carried out at near infrared wavelenghts using a 400- to 700-nm “white” light (0.5 mW/cm^2) and a 725- to 775-nm NIR fluorescence excitation light (5 mW/cm^2). Fluorescence images were collected using exposure times ranging from 500 to 2000 msec. All images collected for comparison between vehicle-injected control animals and FM fluorophore-injected animals had the same exposure time and normalization. Color video images were collected on a separate optical channel using custom designed software. The excitation and emission LEDs and filter used for the FM fluorophores and Pam800 in the intraoperative imaging system are described as follows. For fluorescence excitation of FM 1-43, FM 2-10, FM 1-43FX and Formula IA, sixty 5-mm 470 nm LEDs ([…], Inc., Kyoto, Japan) fitted with 470±20 nm band pass (BP) excitation filters (Chroma Technology, Rockingham, Vt.) in custom holders were used, which produced a fluence rate on the imaging surface of 0.56 mW/cm^2. For fluorescence excitation of Formula II, FM 4-64, FM 4-64FX and FM 5-95, sixty 5-mm 535 nm LEDs fitted with 525±25 nm BP excitation filters were used, which produced a fluence rate on the imaging surface of 0.34 mW/cm^2. A 610±38 nm BP filter was used to detect fluorescence emission of FM 1-43, FM 2-10, Formula II, FM 1-43FX and Formula IA. To detect fluorescence emission of FM 4-64, FM 4-64FX and FM 5-95 a 720 nm long pass (LP) filter was used. For fluorescence excitation of Pam800, 348 5-mm 760 nm LEDs fitted with 764±17 nm BP excitation filters were used, which produced a fluence rate on the imaging surface of 8.73 mW/cm^2 and fluorescence emission was detected using a 824±24 nm BP emission filter. To assess the structure-activity relationship of the FM fluorophores, each molecule was administered at 5 mg/kg to mice and 0.5 mg/kg to rats (n=4 per group) in 10% DMSO and 90% PBS IP 16 hours before imaging with the intraoperative system. The fluorescence signal from the spinal cord, intervertebral discs, dorsal root ganglia, trigeminal ganglia, optic nerve, brain and femoral nerve were normalized to muscle signal in the same image. This normalization ratio was then compared between FM fluorophore-injected animals and vehicle-injected control animals.

In data set [1] the test system is dorsal root ganglia. Described as above. Type of data set: in vivo, mice and rats. The settings on record: 5 mg/kg mice, 0.5 mg/kg rats IP, 16 hours before imaging; signal normalized to muscle, vs vehicle control. How it is done:
as §1

Data set [2] can be described thus: Absorbance and fluorescence spectra of FM fluorophores in solvents. The class given is physicochemical. The settings on record: for Em nm (MeOH): emission maximum in MeOH; for Em nm (PBS): emission maximum in PBS; for Ex nm (MeOH): excitation maximum in MeOH; for Ex nm (PBS): excitation maximum in PBS. Here is the method: (§2) Absorbance and fluorescence spectra of the FM fluorophores were measured in PBS and absolute methanol (MeOH) using fiber-optic HR2000 (200-1100 nm) and USB2000FL (350-1000 nm) spectrometers (Ocean Optics, Dunedin, Fla.), respectively. Fluorescence excitation was provided by a 2 mW, 532 nm laser diode. The fluorescence and absorbance spectra of FORMULA II and FORMULA IA were collected in dimethyl sulfoxide (DMSO) and fetal bovine serum (FBS), as well as MeOH and PBS. The quantum yield of FORMULA II and FORMULA IA in DMSO, MeOH, FBS and PBS was measured by comparing the integrated fluorescence emission of the fluorophores in each solvent to the emission of Alexa Fluor 555 (Invitrogen) in PBS (quantum yield=10%) as a reference standard under conditions of matched absorbance at the excitation wavelength. The LogD of each FM fluorophore at pH 7.5 was calculated using Marvin 5.0.3 software (ChemAxon, Budapest, Hungary).

For data set [3], the system named is dorsal root ganglia. Description: Histology and fluorescence microscopy of dorsal root ganglia. Type of data set: in vivo. The settings on record: rat, 0.5 mg/kg, 16 h post-IP. How it is done: Tissues from mice, rats and pig were preserved for microscopic assessment and localization of fluorescence signal. Tissues were extracted from the animal and placed in 2% paraformaldehyde in PBS for 2 to 4 hours before mounting in Tissue-Tek OCT compound (Fisher Scientific, Pittsburgh, Pa. ) and flash-freezing in liquid nitrogen. Each sample was cryo-sectioned (12 μm per slice); one slide was stained with hematoxylin and eosin (H&E) and a consecutive section was used for fluorescence microscopy. For fluorescence microscopy, serial sections were imaged on a Nikon TE 300 microscope system equipped with a mercury excitation source (Chiu Technical Corporation, Kings Park, N.Y.), Orca-ER 12-bit camera (Hamamatsu, Bridgewater, N.J.), and IPLab software (BD Biosciences, Rockville, Md.), using the following excitation and emission filters combinations. To obtain fluorescence images of FM 4-64, the mercury light source was passed through a 540±15 nm BP excitation filter, 700 nm dichroic beam splitter and 720 nm LP emission filter. To obtain fluorescence images of FM 1-43FX and Formula IA, the mercury light source was passed through a 460±25 nm BP excitation filter, 505 nm dichroic beam splitter and a 610±38 nm BP emission filter. Exposure times were adjusted between 5 and 2000 ms for fluorescence images.

Data set [4] can be described thus: Fluorescence quantum yield versus Alexa Fluor 555 reference. The class given is physicochemical. The settings on record: highest in FBS among DMSO, MeOH, PBS. Here is the method: as §2
For another data set, the system named is intervertebral discs. Description: FM fluorophore uptake, intraoperative fluorescence imaging. The class given is in vivo, mice and rats. Here is the method:
as §1

Structures are written as SMILES.
For Uptake: Dorsal Root Ganglia in this document: key: +: Positive contrast was concluded if the nerve-to-muscle contrast ratio of FM fluorophore-injected animals was elevated relative to control animals.
For Uptake: Intervertebral Disc in this document: key: +: Positive contrast was concluded if the nerve-to-muscle contrast ratio of FM fluorophore-injected animals was elevated relative to control animals.
For Uptake: Trigeminal Ganglia in this document: key: +: Positive contrast was concluded if the nerve-to-muscle contrast ratio of FM fluorophore-injected animals was elevated relative to control animals.

With `CCN(CC)c1ccc(C=CC=CC=Cc2cc[n+](CCC[N+](C)(C)C)cc2)cc1.[Br-].[Br-]` [FM 5-95], the “Uptake: Trigeminal Ganglia” value with trigeminal ganglia was “+”. Besides, the “Uptake: Dorsal Root Ganglia” value in the data set with dorsal root ganglia [1] is given as “+”. Moreover, in data set [2], the “Em nm (MeOH)” value stood at 809 nm, the “Em nm (PBS)” value stood at 809 nm, the “Ex nm (MeOH)” value was found to be 542 nm and the “Ex nm (PBS)” value came to 490 nm.

Take `CCN(CC)c1ccc(/C=C/C=C/C=C/c2cc[n+](CCC[N+](CC)(CC)CC)cc2)cc1.[Br-].[Br-]` [FM 4-64]: the “Uptake: Trigeminal Ganglia” value in the data set with trigeminal ganglia is “+”. In the data set on dorsal root ganglia [1], the “Uptake: Dorsal Root Ganglia” value is “+”. Besides, in data set [2], the “Em nm (MeOH)” value was 811 nm, the “Em nm (PBS)” value was 808 nm, the “Ex nm (MeOH)” value was 546 nm and the “Ex nm (PBS)” value is on record as 507 nm. The “microscopic localisation of fluorescence in dorsal root ganglion” value with dorsal root ganglia [3] is recorded as “significant fluorescence intensity was seen in the dense cellular regions”.

For the compound `CCCCN(CCCC)c1ccc(/C=C/C=C/C=C/c2cc[n+](CCC[N+](CC)(CC)CC)cc2)cc1.[Br-].[Br-]` [Formula II, 4-((1 E,3E,5E)-6-(4-(dibutylamino)phenyl)hexa-1,3,5-trienyl)-1-(3-(triethylammonio)propyl)pyridinium dibromide], the “fluorescence quantum yield, times higher in FBS” value in data set [4] came to 10 times. Besides, in the data set with trigeminal ganglia, the “Uptake: Trigeminal Ganglia” value was “+”. For the same compound, in data set [2] (FBS compared to DMSO, MeOH or PBS), the “blue shift of emission maximum in FBS” value is recorded as “over 100 nm”. Besides, in data set [2], the “Em nm (MeOH)” value was determined as 813 nm, the “Em nm (PBS)” value is recorded as 808 nm, the “Ex nm (MeOH)” value is reported as 549 nm and the “Ex nm (PBS)” value is 519 nm.

For the compound `CCCCN(CCCC)c1ccc(/C=C/c2cc[n+](CCC[N+](CC)(CC)CC)cc2)cc1.[Br-].[Br-]` [FM 1-43], the “Uptake: Trigeminal Ganglia” value in the data set on trigeminal ganglia is on record as “+”. Besides, the “Uptake: Intervertebral Disc” value in the data set on intervertebral discs (5 mg/kg mice, 0.5 mg/kg rats IP, 16 hours before imaging, signal normalized to muscle, vs vehicle control) is given as “+”. For the same compound, the “contrast in the intervertebral discs” value in the data set with intervertebral discs (IP administration to mice and rats) is “positive contrast”. Also, the “Uptake: Dorsal Root Ganglia” value in the data set with dorsal root ganglia [1] was “+”. For the same compound, in data set [2], the “Em nm (MeOH)” value was 624 nm, the “Em nm (PBS)” value was determined as 631 nm, the “Ex nm (MeOH)” value is reported as 509 nm and the “Ex nm (PBS)” value is 493 nm.

As for `CCN(CC)c1ccc(/C=C/c2cc[n+](CCC[N+](CC)(CC)CC)cc2)cc1.[Br-].[Br-]` [FM 2-10], in the data set with trigeminal ganglia, the “Uptake: Trigeminal Ganglia” value is reported as “+”. Besides, in data set [2], the “Em nm (MeOH)” value is on record as 622 nm, the “Em nm (PBS)” value came to 628 nm, the “Ex nm (MeOH)” value stood at 507 nm and the “Ex nm (PBS)” value came out at 490 nm.

For the origin of these results see patent US8357350B2, “Annulus fibrosus detection in intervertebral discs using molecular imaging agents” (General Electric Company, priority 2009, dated 2013).
